From PubChem BioAssay AID1963829 (Molecular Pharmacology Branch, DTP, NCI, 2024)
pIC50: −log10 of the molar value. Values joined by “and” are separate entries in the source; they are usually repeats but may differ in a detail not shown here. Equal entries are not always repeated.

System: 935938-334-R-J1-PDC complex spheroid viability
Experiment: Anticancer human tumor 935938-334-R-J1-PDC patient-derived small intestine adenocarcinoma cell line growth inhibition [POLQ]
Conditions: for viability, T/C: stronger effect = lower value
Description: Multicellular complex tumor spheroid response to Polymerase (POL) inhibitors (novobiocin, ART-558, RP6685) in combination with a variety of drugs and investigational agents in selected tumor cell lines
The POL inhibitors (novobiocin, ART-558, and RP6685) were evaluated both individually and in combination with standard of care and investigational anticancer small molecules within a complex spheroid model of solid tumors. . Complex spheroids include a stromal component modeled by human endothelial cells (HUVEC) and fibroblasts modeled by human mesenchymal stem cells (MSCs). The concentration ranges selected for each drug and investigational agent were based upon clinically achievable concentrations if the clinical Cmax of the agent was known.
Compounds. The drugs and investigational agents: novobiocin (NSC847541), ART-558 (NSC835418), RP-6685 (NSC848927), peposertib (NSC802822), ceralasertib (NSC780249), elimusertib (NSC800525), camonsertib (NSC841442), AZD-1390 (NSC803789), olaparib (NSC753686), talazoparib (NSC767125), rucaparib (NSC756644), sotorasib (NSC818433), MRTX-1133 (NSC836407), SN-38 (NSC673596), topotecan (NSC609699), epotoside (NSC141540), doxorubicin (NSC123127), gemcitabine (NSC613327), 5-fluorouracil (NSC19893), paclitaxel (NSC125973), vemurafenib (NSC761431), MSA-2 (NSC828583), SN-011 (NSC837082), adavosertib (NSC754352), prexasertib (NSC758257), carboplatin (NSC241240) and oxaliplatin (NSC266046), were obtained from the National Cancer Institute (NCI) Developmental Therapeutics Program Chemical Repository (21). The FDA-approved anticancer drug set is available from the Developmental Therapeutics Program at https://dtp.cancer.gov/organization/dscb/obtaining/. […] The stock solutions were prepared in dimethyl sulfoxide (DMSO, Sigma-Aldrich, St. Louis, MO, cat. D2650), except for the platinum compounds which were prepared in saline (Quality Biological, Gaithersburg, MD, cat. 114-055-101), at 800-fold the tested concentration and stored at -70 degrees C prior to their use. All drugs and investigational agents were tested over a range starting from a high concentration at or near the clinical Cmax and decreasing in half-log increments. If the clinical Cmax for an agent had not been determined, the highest concentration tested was 10 microM, except for SN-38, which was tested at a high concentration of 1 microM.
Cell Culture. All cells were maintained in an incubator at 37 degrees C and 5% CO2 with 95% humidity. The PDC lines were cultured according to standard operating procedures established by the NCI PDMR (https://pdmr.cancer.gov). Table 3 of the manuscript, lists the cell lines along with the number of the three cell types plated to form the mct-spheroids and media for tumor cell growth. After thawing, all PDC lines, except 997537-175-T-J1-PDC and 415267-285-R-J2-PDC, were cultured in Matrigel-coated flasks prepared with a working solution of 1X Ham's F-12 nutrient mix, without supplementation (Thermo Fisher Scientific, cat. 11765054), 100 U/mL penicillin-streptomycin (Thermo Fisher Scientific, cat. 15140122), and 2.5% Matrigel (Corning Inc., Corning, NY, cat. 354248) for the first three passages. The two PDC lines 997537-175-T-J1-PDC and 415267-285-R-J2-PDC were cultured on uncoated flasks. The 857933-349-R-J2-PDC line was cultured in 6C/Colon 1B media containing advanced DMEM/F-12 (Thermo Fisher Scientific, cat. 12634028), 10 mM HEPES (Thermo Fisher Scientific, cat. 15630080), 1X GlutaMAX supplement (Thermo Fisher Scientific, cat. 35050061), 0.1 mg/mL primocin (InvivoGen, San Diego, CA, cat. ant-pm-2), 10% defined fetal bovine serum, heat inactivated (HyClone Laboratories Inc., Logan, UT, cat. SH30070.03HI), 50% L-WRN conditioned media (ATCC, cat. CRL-3276), 1.25 mM N-Acetyl-L-cysteine (Sigma-Aldrich, cat. A9165), 10 mM nicotinamide (Sigma-Aldrich, cat. N0636), 1X B-27 supplement (Thermo Fisher Scientific, cat. 17504044), 1X N-2 supplement (Thermo Fisher Scientific, cat. […]
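Also: spheroids exposed to drugs for seven days before viability read.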
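For viability, T/C in this document: 100% = DMSO vehicle control wells.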

CCc1c2c(nc3ccc(O)cc13)-c1cc3c(c(=O)n1C2)COC(=O)[C@]3(O)CC + COC1C(OC(N)=O)C(O)C(Oc2ccc3c(O)c(NC(=O)c4ccc(O)c(CC=C(C)C)c4)c(=O)oc3c2C)OC1(C)C
pIC50 (curve of first compound, second compound 0.0316 µM): 7.78
pIC50 (curve of first compound, second compound 0.1 µM): 7.65
pIC50 (curve of first compound, second compound 0.316 µM): 7.75
pIC50 (curve of first compound, second compound 1 µM): 7.74
pIC50 (curve of first compound, second compound 3.16 µM): 7.86
pIC50 (curve of first compound, second compound 10 µM): 8.28
viability, T/C (second compound 0.0316 µM, first compound 0.00316 µM): 82%
viability, T/C (second compound 0.0316 µM, first compound 0.01 µM): 59.3%
viability, T/C (second compound 0.0316 µM, first compound 0.0316 µM): 38%
viability, T/C (second compound 0.0316 µM, first compound 0.1 µM): 29.4%
viability, T/C (second compound 0.0316 µM, first compound 0.316 µM): 22.9%
viability, T/C (second compound 0.0316 µM, first compound 1 µM): 27.8%
viability, T/C (second compound 0.1 µM, first compound 0.00316 µM): 75.8%
viability, T/C (second compound 0.1 µM, first compound 0.01 µM): 73.7%
viability, T/C (second compound 0.1 µM, first compound 0.0316 µM): 40.1%
viability, T/C (second compound 0.1 µM, first compound 0.1 µM): 29.6%
viability, T/C (second compound 0.1 µM, first compound 0.316 µM): 28.7%
viability, T/C (second compound 0.1 µM, first compound 1 µM): 30.5%
viability, T/C (second compound 0.316 µM, first compound 0.00316 µM): 68%
viability, T/C (second compound 0.316 µM, first compound 0.01 µM): 63.8%
viability, T/C (second compound 0.316 µM, first compound 0.0316 µM): 36.2%
viability, T/C (second compound 0.316 µM, first compound 0.1 µM): 27.3%
viability, T/C (second compound 0.316 µM, first compound 0.316 µM): 29%
viability, T/C (second compound 0.316 µM, first compound 1 µM): 22.4%
viability, T/C (second compound 1 µM, first compound 0.00316 µM): 62.9%
viability, T/C (second compound 1 µM, first compound 0.01 µM): 76.8%
viability, T/C (second compound 1 µM, first compound 0.0316 µM): 31.5%
viability, T/C (second compound 1 µM, first compound 0.1 µM): 26.8%
viability, T/C (second compound 1 µM, first compound 0.316 µM): 29.3%
viability, T/C (second compound 1 µM, first compound 1 µM): 22.9%
viability, T/C (second compound 3.16 µM, first compound 0.00316 µM): 73.1%
viability, T/C (second compound 3.16 µM, first compound 0.01 µM): 57.4%
viability, T/C (second compound 3.16 µM, first compound 0.0316 µM): 31.6%
viability, T/C (second compound 3.16 µM, first compound 0.1 µM): 30.2%
viability, T/C (second compound 3.16 µM, first compound 0.316 µM): 27.8%
viability, T/C (second compound 3.16 µM, first compound 1 µM): 28.4%
viability, T/C (second compound 10 µM, first compound 0.00316 µM): 53.2%
viability, T/C (second compound 10 µM, first compound 0.01 µM): 49.2%
viability, T/C (second compound 10 µM, first compound 0.0316 µM): 34.2%
viability, T/C (second compound 10 µM, first compound 0.1 µM): 30.1%
viability, T/C (second compound 10 µM, first compound 0.316 µM): 31.8%
viability, T/C (second compound 10 µM, first compound 1 µM): 31.3%

CC1COCCN1c1cc(C2(O)CC3CCC(C2)O3)c2cnn(-c3ccn[nH]3)c2n1 (stereo not given)
viability, T/C (compound 0.0316 µM): 84.1% and 74.7% and 60.4%
viability, T/C (compound 0.1 µM): 62.5% and 69.8% and 72.1%
viability, T/C (compound 0.316 µM): 45.6% and 32.8% and 34.3%
viability, T/C (compound 1 µM): 24.3% and 23.7% and 22.5%
viability, T/C (compound 3.16 µM): 15% and 14% and 18.6%
viability, T/C (compound 10 µM): 12% and 10.3% (2×)
pIC50 (curve of compound): 6.67 and 6.73 and 6.74

C=CC(=O)N1CCN(c2nc(=O)n(-c3c(C)ccnc3C(C)C)c3nc(-c4c(O)cccc4F)c(F)cc23)C(C)C1 (stereo not given)
viability, T/C (compound 0.0316 µM): 83.1% and 99.4% and 81.4%
viability, T/C (compound 0.1 µM): 94.9% and 68.4% and 69.6%
viability, T/C (compound 0.316 µM): 89.5% and 99.7% and 67.9%
viability, T/C (compound 1 µM): 89.7% and 115% and 113%
viability, T/C (compound 3.16 µM): 102% and 110% and 112%
viability, T/C (compound 10 µM): 99.6% and 131% and 105%
pIC50 (curve of compound): < 5.00

CC[C@@]1(O)C(=O)OCc2c1cc1n(c2=O)Cc2cc3c(CN(C)C)c(O)ccc3nc2-1
viability, T/C (compound 0.000316 µM): 81.3% and 82.1% and 82.2%
viability, T/C (compound 0.001 µM): 103% and 107% and 86.1%
viability, T/C (compound 0.00316 µM): 72.4% and 89.2% and 99%
viability, T/C (compound 0.01 µM): 103% and 118% and 92.3%
viability, T/C (compound 0.0316 µM): 96.8% and 83.6% and 81.2%
viability, T/C (compound 0.1 µM): 49.7% and 61.4% and 63%
pIC50 (curve of compound): 7.00 and < 7.00

CCc1c2c(nc3ccc(O)cc13)-c1cc3c(c(=O)n1C2)COC(=O)[C@]3(O)CC
viability, T/C (compound 0.00316 µM): 59.3% and 81% and 86.5%
viability, T/C (compound 0.01 µM): 70.9% and 60% and 64%
viability, T/C (compound 0.0316 µM): 42.9% and 36.9% and 39.4%
viability, T/C (compound 0.1 µM): 31.1% and 30.2% and 33.9%
viability, T/C (compound 0.316 µM): 39.8% and 38.2% and 27.4%
viability, T/C (compound 1 µM): 35.2% and 33.7% and 25.6%
pIC50 (curve of compound): 7.66 and 7.79 and 7.70
